Measurements reported in patent US20250144067A1, “PERSONALIZED STARVATION THERAPY FOR CANCER” (Faeth Therapeutics, Inc., priority 2021, published 2025).
Where a name gives a salt, the structure may show the parent alone. Read-outs that look alike come from different tables or passages of the source.

Columns and labels:
[1] = tested on: NCI-H292 lung cancer cells; experiment: FDA drug screening, complete media vs cholesterol-free media with simvastatin (TABLE 2); assay type: cell-based, human
[2] = tested on: NCI-H292 lung cancer cells; experiment: FDA drug screening, complete media vs cholesterol-free media without statin (TABLE 1); assay type: cell-based, human
[3] = NCI-H292 cells, FDA drug library screen, cholesterol-free media with simvastatin 0.04 μM
[4] = NCI-H292 cells, FDA drug library screen, complete media
[5] = complete media vs cholesterol-free media + simvastatin (0.04 μM), >0 enhanced anti-cancer activity, about 0 neutral, <0 antagonist
[6] = Complete minus Cholesterol-free, >0 enhanced anti-cancer activity, about 0 neutral, <0 antagonist
[7] = NCI-H292 cells, cholesterol-free media without statin, FDA drug library screen
[8] = NCI-H292 cells, complete media, FDA drug library screen
[9] = NCI-H292 cells, cholesterol-free media with simvastatin 0.04 μM, cell growth value in FDA drug screen
[10] = NCI-H292 cells, complete media, cell growth value in FDA drug screen
[11] = complete media minus cholesterol-free media + simvastatin, >0 enhanced anti-cancer activity, about 0 neutral, <0 antagonist
[12] = NCI-H292 cells, drug in cholesterol-free media with simvastatin 0.04 μM
[13] = NCI-H292 cells, drug in complete media
[14] = complete vs cholesterol-free media, >0 enhanced anti-cancer activity, about 0 neutral, <0 antagonist
[15] = NCI-H292 cells, cholesterol-free media without statin
[16] = complete vs cholesterol-free media, greater than 0 enhanced anti-cancer activity, about 0 neutral, below 0 antagonists
[17] = Complete minus Cholesterol-free, greater than 0 enhanced anti-cancer activity, about 0 neutral, below 0 antagonists
[18] = NCI-H292 cells in cholesterol-free media without statin
[19] = NCI-H292 cells in complete media
[20] = NCI-H292 cells, cholesterol-free media with simvastatin 0.04 μM, FDA drug library screen (TABLE 2)
[21] = NCI-H292 cells, complete media, FDA drug library screen (TABLE 2)
[22] = complete media minus cholesterol-free media + simvastatin (0.04 μM), >0 enhanced anti-cancer activity, about 0 neutral, <0 antagonist
[23] = Complete minus Cholesterol-free, greater than 0 enhanced anti-cancer activity, about 0 neutral, below 0 antagonist
[24] = NCI-H292 cells, FDA drug library screen, cholesterol-free media without statin
[25] = NCI-H292 cells, FDA library drug in cholesterol-free media with simvastatin 0.04 μM
[26] = NCI-H292 cells, FDA library drug in complete media

CC(=O)O[C@@]12CO[C@@H]1C[C@H](O)[C@@]1(C)C(=O)[C@H](O)C3=C(C)[C@@H](OC(=O)[C@H](O)[C@@H](NC(=O)OC(C)(C)C)c4ccccc4)C[C@@](O)([C@@H](OC(=O)c4ccccc4)[C@H]21)C3(C)C [Docetaxel (Trihydrate)]
Cholesterol-free media + simvastatin (0.04 μM) [1, 3]: 0.3708 | Complete Media [1, 4]: 0.2794 | Difference [1, 5]: −0.09 | Difference [2, 6]: −0.05 | Cholesterol-free [2, 7]: 0.2507 | Complete [2, 8]: 0.2029

CC(=O)O[C@@]12CO[C@@H]1C[C@H](O)[C@@]1(C)C(=O)[C@H](O)C3=C(C)[C@@H](OC(=O)[C@H](O)[C@@H](NC(=O)OC(C)(C)C)c4ccccc4)C[C@@](O)([C@@H](OC(=O)c4ccccc4)[C@H]21)C3(C)C [Docetaxel]
Cholesterol-free media + simvastatin (0.04 μM) [1, 9]: 0.2547 | Complete Media [1, 10]: 0.2778 | Difference [1, 11]: 0.02 | Difference [2, 6]: 0.04 | Cholesterol-free [2, 7]: 0.1661 | Complete [2, 8]: 0.2055

CC/C=C\C/C=C\C/C=C\C/C=C\C/C=C\C/C=C\CCC(=O)O [Docosahexaenoic Acid]
Cholesterol-free media + simvastatin (0.04 μM) [1, 12]: 1.034 | Complete Media [1, 13]: 0.8041 | Difference [1, 5]: −0.23 | Cholesterol-free [2, 7]: 1.175 | Complete [2, 8]: 1.764 | Difference [2, 14]: 0.59

CCCCC(CC)COC(=O)CC(C(=O)OCC(CC)CCCC)S(=O)(=O)O (stereo not shown) [Docusate (Sodium)]
Cholesterol-free media + simvastatin (0.04 μM) [1, 12]: 1.08 | Complete Media [1, 13]: 0.9061 | Difference [1, 5]: −0.17 | Cholesterol-free [2, 15]: 1.285 | Complete ([2]; NCI-H292 cells, complete media): 0.839 | Difference [2, 16]: −0.45

CN(CCOc1ccc(NS(C)(=O)=O)cc1)CCc1ccc(NS(C)(=O)=O)cc1 [Dofetilide]
Cholesterol-free media + simvastatin (0.04 μM) [1, 3]: 0.6812 | Complete Media [1, 4]: 0.8394 | Difference [1, 11]: 0.16 | Difference [2, 17]: −0.48 | Cholesterol-free [2, 18]: 1.275 | Complete [2, 19]: 0.7972

O=C(O[C@@H]1C[C@@H]2C[C@H]3C[C@H](C1)N2CC3=O)c1c[nH]c2ccccc12 [Dolasetron (Mesylate hydrate)]
Cholesterol-free media + simvastatin (0.04 μM) [1, 3]: 1.31 | Complete Media [1, 4]: 1.817 | Difference [1, 11]: 0.51 | Cholesterol-free [2, 15]: 1.287 | Complete ([2]; NCI-H292 cells, complete media): 0.8444 | Difference [2, 16]: −0.44

O=C(O[C@@H]1C[C@@H]2C[C@H]3C[C@H](C1)N2CC3=O)c1c[nH]c2ccccc12 [Dolasetron]
Cholesterol-free media + simvastatin (0.04 μM) [1, 9]: 0.9714 | Complete Media [1, 10]: 1.02 | Difference [1, 11]: 0.05 | Cholesterol-free [2, 15]: 1.4 | Complete ([2]; NCI-H292 cells, complete media): 0.9782 | Difference [2, 16]: −0.42

C[C@@H]1CCO[C@H]2Cn3cc(C(=O)NCc4ccc(F)cc4F)c(=O)c(O)c3C(=O)N12 [Dolutegravir (sodium)]
Cholesterol-free media + simvastatin (0.04 μM) [1, 9]: 0.4489 | Complete Media [1, 10]: 0.5012 | Difference [1, 11]: 0.05 | Difference [2, 6]: −0.20 | Cholesterol-free [2, 15]: 0.8373 | Complete ([2]; NCI-H292 cells, complete media): 0.6354

C[C@@H]1CCO[C@H]2Cn3cc(C(=O)NCc4ccc(F)cc4F)c(=O)c(O)c3C(=O)N12 [Dolutegravir]
Cholesterol-free media + simvastatin (0.04 μM) [1, 20]: 0.5964 | Complete Media [1, 21]: 0.5738 | Difference [1, 22]: −0.02 | Difference [2, 6]: −0.20 | Cholesterol-free [2, 15]: 0.9033 | Complete ([2]; NCI-H292 cells, complete media): 0.7062

CCCCCCCCCCCC[N+](C)(C)CCOc1ccccc1.[Br-] [Domiphen (bromide)]
Cholesterol-free media + simvastatin (0.04 μM) [1]: 0.01614 | Complete Media [1]: −0.0427 | Difference [1]: −0.06 | Cholesterol-free [2]: −0.0357 | Complete [2]: 0.01628 | Difference [2]: 0.05

O=c1[nH]c2ccccc2n1CCCN1CCC(n2c(=O)[nH]c3cc(Cl)ccc32)CC1 [Domperidone]
Cholesterol-free media + simvastatin (0.04 μM) [1, 9]: 0.9833 | Complete Media [1, 10]: 1.061 | Difference [1, 11]: 0.08 | Difference [2, 23]: −0.14 | Cholesterol-free [2, 24]: 1.085 | Complete [2, 4]: 0.9412

COc1cc2c(cc1OC)C(=O)C(CC1CCN(Cc3ccccc3)CC1)C2 (stereo not shown) [Donepezil (Hydrochloride)]
Cholesterol-free media + simvastatin (0.04 μM) [1, 3]: 0.6694 | Complete Media [1, 4]: 0.8164 | Difference [1, 11]: 0.15 | Difference [2, 6]: −0.23 | Cholesterol-free [2, 15]: 0.9321 | Complete ([2]; NCI-H292 cells, complete media): 0.7035

COc1cc2c(cc1OC)C(=O)C(CC1CCN(Cc3ccccc3)CC1)C2 (stereo not shown) [Donepezil]
Cholesterol-free media + simvastatin (0.04 μM) [1, 3]: 1.009 | Complete Media [1, 4]: 1.62 | Difference [1, 11]: 0.61 | Difference [2, 6]: 0.03 | Cholesterol-free [2, 7]: 0.9537 | Complete [2, 8]: 0.9881

Cn1c(Cn2ccc(C(F)(F)F)c(Oc3cc(Cl)cc(C#N)c3)c2=O)n[nH]c1=O [Doravirine]
Cholesterol-free media + simvastatin (0.04 μM) [1, 3]: 1.425 | Complete Media [1, 4]: 1.562 | Difference [1, 11]: 0.14 | Difference [2, 6]: 0.06 | Cholesterol-free [2, 7]: 0.8163 | Complete [2, 8]: 0.8734

C[C@@H](O)[C@H]1C(=O)N2C(C(=O)O)=C(S[C@@H]3CN[C@H](CNS(N)(=O)=O)C3)[C@H](C)[C@H]12 [Doripenem (monohydrate)]
Cholesterol-free media + simvastatin (0.04 μM) [1, 3]: 0.9911 | Complete Media [1, 4]: 0.8363 | Difference [1, 5]: −0.15 | Difference [2, 6]: −0.25 | Cholesterol-free [2, 15]: 1.011 | Complete ([2]; NCI-H292 cells, complete media): 0.7618

CCN[C@H]1C[C@H](C)S(=O)(=O)c2sc(S(N)(=O)=O)cc21 [Dorzolamide (hydrochloride)]
Cholesterol-free media + simvastatin (0.04 μM) [1, 25]: 0.9476 | Complete Media [1, 26]: 0.6459 | Difference [1, 5]: −0.30 | Difference [2, 23]: −0.11 | Cholesterol-free [2, 24]: 1.045 | Complete [2, 4]: 0.9378

CCN1CC(CCN2CCOCC2)C(c2ccccc2)(c2ccccc2)C1=O (stereo not shown) [Doxapram (hydrochloride hydrate)]
Cholesterol-free media + simvastatin (0.04 μM) [1, 3]: 0.894 | Complete Media [1, 4]: 1.128 | Difference [1, 11]: 0.23 | Difference [2, 17]: −1.01 | Cholesterol-free [2, 18]: 2.003 | Complete [2, 19]: 0.9924

CN(C)CCC=C1c2ccccc2COc2ccccc21 [Doxepin (Hydrochloride)]
Cholesterol-free media + simvastatin (0.04 μM) [1, 3]: 0.8618 | Complete Media [1, 4]: 1.158 | Difference [1, 11]: 0.30 | Difference [2, 23]: −0.11 | Cholesterol-free [2, 24]: 1.23 | Complete [2, 4]: 1.122

C[C@H]1O[C@@H](n2cc(F)c(=O)[nH]c2=O)[C@H](O)[C@@H]1O [Doxifluridine]
Cholesterol-free media + simvastatin (0.04 μM) [1, 20]: 1.085 | Complete Media [1, 21]: 1.031 | Difference [1, 22]: −0.05 | Difference [2, 17]: −0.49 | Cholesterol-free [2, 18]: 1.329 | Complete [2, 19]: 0.8392

Cn1c(=O)c2c(ncn2CC2OCCO2)n(C)c1=O [Doxofylline]
Cholesterol-free media + simvastatin (0.04 μM) [1, 25]: 1.302 | Complete Media [1, 26]: 1.024 | Difference [1, 5]: −0.28 | Cholesterol-free [2, 15]: 1.338 | Complete ([2]; NCI-H292 cells, complete media): 0.9897 | Difference [2, 16]: −0.35

COc1cccc2c1C(=O)c1c(O)c3c(c(O)c1C2=O)C[C@@](O)(C(=O)CO)C[C@@H]3O[C@H]1C[C@H](N)[C@H](O)[C@H](C)O1 [Doxorubicin (hydrochloride)]
Cholesterol-free media + simvastatin (0.04 μM) [1, 20]: 0.09054 | Complete Media [1, 21]: 0.01994 | Difference [1, 22]: −0.07 | Cholesterol-free [2, 7]: −0.08252 | Complete [2, 8]: −0.006007 | Difference [2, 14]: 0.08

CCO.C[C@H]1c2cccc(O)c2C(O)=C2C(=O)[C@]3(O)C(O)=C(C(N)=O)C(=O)[C@@H](N(C)C)[C@@H]3[C@@H](O)[C@@H]21.C[C@H]1c2cccc(O)c2C(O)=C2C(=O)[C@]3(O)C(O)=C(C(N)=O)C(=O)[C@@H](N(C)C)[C@@H]3[C@@H](O)[C@@H]21.Cl.Cl.O [Doxycycline (hyclate)]
Cholesterol-free media + simvastatin (0.04 μM) [1, 12]: 1.074 | Complete Media [1, 13]: 0.8852 | Difference [1, 5]: −0.19 | Difference [2, 23]: −0.15 | Cholesterol-free [2, 24]: 1.09 | Complete [2, 4]: 0.9355

CCN(CC)CCOC(=O)C(c1ccccc1)C1CCCCC1 (stereo not shown) [Drofenine (hydrochloride)]
Cholesterol-free media + simvastatin (0.04 μM) [1, 9]: 1.111 | Complete Media [1, 10]: 1.144 | Difference [1, 11]: 0.03 | Difference [2, 17]: −0.55 | Cholesterol-free [2, 18]: 1.437 | Complete [2, 19]: 0.8908

CCCCc1oc2ccc(NS(C)(=O)=O)cc2c1C(=O)c1ccc(OCCCN(CCCC)CCCC)cc1 [Dronedarone (Hydrochloride)]
Complete Media [1, 10]: 0.8231 | Difference [1, 11]: 0.06 | Cholesterol-free [2, 7]: 0.4604 | Difference [2, 14]: 0.28

CCCCc1oc2ccc(NS(C)(=O)=O)cc2c1C(=O)c1ccc(OCCCN(CCCC)CCCC)cc1 [Dronedarone]
Cholesterol-free media + simvastatin (0.04 μM) [1, 3]: 0.4908 | Complete Media [1, 4]: 0.8741 | Difference [1, 11]: 0.38 | Difference [2, 23]: −0.14 | Cholesterol-free [2, 24]: 1.006 | Complete [2, 4]: 0.8674

O=C(CCCN1CC=C(n2c(=O)[nH]c3ccccc32)CC1)c1ccc(F)cc1 [Droperidol]
Cholesterol-free media + simvastatin (0.04 μM) [1, 25]: 1.065 | Complete Media [1, 26]: 0.7994 | Difference [1, 5]: −0.27 | Difference [2, 6]: −0.22 | Cholesterol-free [2, 15]: 1.218 | Complete ([2]; NCI-H292 cells, complete media): 1.002
